Several values for one entry are separate records, joined by “and”; a condition that tells them apart may be missing. Identical values can stand only once. Counter-ions that a name gives are not always drawn.
Biological target: T1, recombinant human AMPK complex, containing α2β1γ2 (Homo sapiens, UniProt P54646+Q9Y478)
T1 construct: hsAMPKα2-552-His, hsAMPKβ1-2-270 and hsAMPKγ-2-569 respectively; hsAMPKβ1-2-270; hsAMPKγ-2-569; His (C); made in house; host or cells: Spodoptera frugiperda Sf21 (baculovirus)
Test: AMPK in vitro activation assay (HTRF)
Format: biochemical
Details: for EC50: HTRF, recombinant human α2β1γ2 AMPK, 200 μM ATP, biotinylated ACC-CREBp peptide, repeat determinations on separate lines; for Emax: potentiation of AMPK activity as percent over the basal signal (without compound)
How it was run: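 Sf21-expressed, Ni-NTA partially purified α2β1γ2 complex preincubated 30 min at room temperature with compound (0.5% DMSO) in HEPES pH 7.0, MgCl2, DTT. Reaction was started with a solution holding 200 μM ATP and 2 or 0.08 μM biotinylated ACC-CREBp peptide, run 45 min at 37° C, then read by HTRF with anti-pS133-CREB; EC50 from percent over basal.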

T1 sequence (P54646 2-552): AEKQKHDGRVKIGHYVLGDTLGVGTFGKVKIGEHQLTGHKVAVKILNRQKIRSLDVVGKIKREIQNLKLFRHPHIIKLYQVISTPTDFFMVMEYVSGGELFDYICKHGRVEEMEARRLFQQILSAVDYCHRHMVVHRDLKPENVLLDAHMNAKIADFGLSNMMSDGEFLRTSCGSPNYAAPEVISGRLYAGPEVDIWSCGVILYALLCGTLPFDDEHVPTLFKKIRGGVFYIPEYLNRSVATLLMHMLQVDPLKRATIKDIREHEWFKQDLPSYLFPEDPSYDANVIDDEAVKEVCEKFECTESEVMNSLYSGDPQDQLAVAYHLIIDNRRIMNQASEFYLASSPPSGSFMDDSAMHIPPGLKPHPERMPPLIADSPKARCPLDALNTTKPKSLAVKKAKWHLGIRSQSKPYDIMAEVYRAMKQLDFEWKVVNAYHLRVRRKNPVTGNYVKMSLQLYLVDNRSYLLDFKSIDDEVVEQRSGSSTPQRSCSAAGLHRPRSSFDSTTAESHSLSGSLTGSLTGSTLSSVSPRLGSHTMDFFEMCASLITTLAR
T1 sequence (Q9Y478 2-270): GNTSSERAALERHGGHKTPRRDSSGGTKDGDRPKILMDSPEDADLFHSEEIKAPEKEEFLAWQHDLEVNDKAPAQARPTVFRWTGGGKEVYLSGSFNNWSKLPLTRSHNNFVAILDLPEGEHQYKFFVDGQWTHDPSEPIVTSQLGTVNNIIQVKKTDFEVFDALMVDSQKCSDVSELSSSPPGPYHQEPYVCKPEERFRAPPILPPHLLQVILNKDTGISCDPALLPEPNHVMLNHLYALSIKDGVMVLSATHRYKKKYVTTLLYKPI
T1 sequence (Q9UGJ0 2-569 partner limits assumed): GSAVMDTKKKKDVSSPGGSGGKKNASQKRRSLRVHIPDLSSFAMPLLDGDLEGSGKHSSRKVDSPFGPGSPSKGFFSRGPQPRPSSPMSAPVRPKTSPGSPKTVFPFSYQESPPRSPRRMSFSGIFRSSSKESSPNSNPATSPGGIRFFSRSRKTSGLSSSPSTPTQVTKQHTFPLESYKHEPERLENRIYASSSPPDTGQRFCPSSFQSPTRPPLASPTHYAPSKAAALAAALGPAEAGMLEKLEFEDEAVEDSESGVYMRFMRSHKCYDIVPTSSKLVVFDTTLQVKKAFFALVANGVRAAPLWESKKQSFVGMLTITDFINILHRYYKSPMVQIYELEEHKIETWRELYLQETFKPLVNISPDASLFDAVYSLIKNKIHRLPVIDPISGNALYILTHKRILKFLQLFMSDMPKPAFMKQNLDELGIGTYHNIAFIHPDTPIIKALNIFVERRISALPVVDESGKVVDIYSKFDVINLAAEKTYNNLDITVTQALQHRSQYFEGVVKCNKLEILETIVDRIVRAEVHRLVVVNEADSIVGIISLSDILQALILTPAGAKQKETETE

EC50	Emax [%]	SMILES
0.1 nM	129	COc1cccc(-c2ccc(-c3cc4c(cc3Cl)NC(=O)C4=C(O)c3cc(C4CC4)no3)cc2)c1O [Compound 117, 6-chloro-3-[(3-cyclopropylisoxazol-5-yl)hydroxy-methylene]-5-[4-(2-hydroxy-3-methoxy-phenyl)phenyl]indolin-2-one]
11 nM	194	CC(C)(C)c1cc(C(O)=C2C(=O)Nc3cc(Cl)c(-c4ccc(C5CC(O)C5)cc4)cc32)on1 (centres unmarked) [Compound 164, 3-[(3-tert-butylisoxazol-5-yl)-hydroxy-methylene]6-chloro-5-[4-(3-hydroxycyclobutyl)phenyl]indolin-2-one]
0.3 nM and 0.8 nM	–	COc1ccc(C(O)=C2C(=O)Nc3cc(Cl)c(-c4ccc(C5(CO)CC5)cc4)cc32)cn1 [Compound 116, 6-chloro-3-[hydroxy-(6-methoxy-3-pyridyl)methylene]-5-[4-[1-(hydroxymethyl)cyclopropyl]phenyl]indolin-2-one hydrochloride]
120 nM	113	Cc1cc(C(O)=C2C(=O)Nc3cc(Cl)c(-c4ccc(-c5ccco5)cc4)cc32)on1 [Compound 65, 6-Chloro-5-(4-furan-2-yl-phenyl)-3-[1-hydroxy-1-(3-methyl-isoxazol-5-yl)methylidene]-1,3-dihydro-indol-2-one]
7 nM	234	COc1cc(C(O)=C2C(=O)Nc3cc(Cl)c(-c4ccc(N(C)C5CC5)cc4)cc32)on1 [Compound 153, 6-chloro-5-[4-[cyclopropyl(methyl)amino]phenyl]-3-[hydroxy-(3-methoxyisoxazol-5-yl)methylene]indolin-2-one]
49 nM	364	Cc1cc(C(O)=C2C(=O)Nc3cc(Cl)c(-c4ccc(OCC5COC5)cc4)cc32)on1 [Compound 132, 6-chloro-3-[hydroxy-(3-methylisoxazol-5-yl)methylene]-5-[4-(oxetan-3-ylmethoxy)phenyl]indolin-2-one]
700 nM	133	Cc1cc(C(O)=C2C(=O)Nc3cc(Cl)c(-c4ccc(C#N)cc4)cc32)on1 [Compound 38, 4-{6-Chloro-3-[1-hydroxy-1-(3-methyl-isoxazol-5-yl)-methylidene]-2-oxo-2,3-dihydro-1H-indol-5-yl}-benzonitrile]
396 nM	159	O=C1Nc2cc(Cl)c(-c3ccc(N4CCOCC4)cc3)cc2C1=C(O)c1ccc(OC(F)(F)F)c(F)c1 [Compound 95, 6-chloro-3-[[3-fluoro-4-(trifluoromethoxy)phenyl]-hydroxy-methylene]-5-(4-morpholinophenyl)indolin-2-one]
320 nM	146	O=C1Nc2cc(Cl)c(-c3ccc(N4CCOCC4)cc3)cc2C1=C(O)c1cccnc1 [Compound 25, 6-Chloro-3-[1-hydroxy-1-pyridin-3-yl-methylidene]-5-(4-morpholin-4-yl-phenyl)-1,3-dihydro-indol-2-one]
7 nM	186	Cc1cc(C(O)=C2C(=O)Nc3cc(Cl)c(-c4ccc(C5(CO)CC5)cc4)cc32)on1 [Compound 6, 6-Chloro-5-[4-(1-hydroxymethyl-cyclopropyl)-phenyl]-3-[1-hydroxy-1-(3-methyl-isoxazol-5-yl)-methylidene]-1,3-dihydro-indol-2-one]
2 nM	158	COc1cc(C(O)=C2C(=O)Nc3cc(F)c(-c4ccc(-c5cccc(OC)c5O)cc4)cc32)on1 [Compound 71, 6-Fluoro-5-(2′-hydroxy-3′-methoxy-biphenyl-4-yl)-3-[1-hydroxy-1-(3-methoxy-isoxazol-5-yl)methylidene]-1,3-dihydro-indol-2-one]
780 nM	136	COc1cc(-c2cc3c(cc2Cl)NC(=O)C3=C(O)c2cc(C)no2)ccc1O [Compound 81, 6-chloro-5-(4-hydroxy-3-methoxy-phenyl)-3-[hydroxy-(3-methylisoxazol-5-yl)methylene]indolin-2-one]

From US10077237B2 (Sanofi, priority 2013, dated 2018)
